Experimental data published in US9597342B2 (UWM Research Foundation, Inc., priority 2011, dated 2017).
Marks after values point to notes of the source that are not given here.

Legend:
[1] = In vitro metabolic stability using human liver microsomes; conditions: for % remaining: at both 1 and 10 μM
Procedure: The metabolic stability of 15 GABAA receptor ligands using human liver microsomes was studied. The test articles were incubated at two concentrations (1 and 10 μM) and aliquots (100 μl) were removed at various time points (0, 15, 30 and 60 minutes), and analyzed by LC-MS/MS.
(§1) The test articles were incubated at two concentrations (1 and 10 μM) in 96-well plate format with active or heat-inactivated human liver microsomes and cofactors. Aliquots were removed at 0, 15, 30 and 60 minutes and mixed with acetonitrile containing internal standard for analysis. Samples were extracted and assayed using a liquid chromatography/tandem mass spectrometry (LC-MS/MS) analytical method.
Pooled human liver microsomes (Lot #38289, pool of 150 different male and female donor livers) were obtained from BD Biosciences Corporation (Woburn, Mass.). Microsomes were stored at ˜−135° C. until use.
(§2) The test articles (1 and 10 μM) were incubated with human liver microsomes (0.5 mg protein/ml) and appropriate cofactors (2.5 mM NADPH and 3.3 mM magnesium chloride) in 100 mM phosphate buffer, pH 7.4 (0.1% final DMSO), in a 37° C. water bath. Incubations with all compounds were initiated with the addition of microsomes. At selected time points (0, 15, 30 and 60 min), a single 100 μl aliquot was removed from each sample and mixed with 200 μl of chilled acetonitrile containing internal standard. Following brief vortexing and centrifugation, the samples were further diluted into a 96-well plate for subsequent LC-MS/MS analysis. All samples were assayed in duplicate.
(§3) Experimental controls consisted of: a) incubation of all components except test article for 0 and 60 min, b) incubation of midazolam (positive control) at 10 μM for 0, 15, 30 and 60 min, and c) incubation of 1 and 10 μM test article and 10 μM midazolam with heat-inactivated microsomes (0.5 mg protein/ml) for 0 and 60 min. All controls were assayed in duplicate.
Samples were analyzed by LC-MS/MS in multiple reaction monitoring mode using positive-ion electrospray ionization. The details of the LC-MS/MS method can be provided upon request.
(§4) Data from the metabolic stability assays were transferred to and processed in a Microsoft Excel spreadsheet. To determine metabolic stability, the percent remaining at each time point was calculated by dividing the peak area ratio of test article/internal standard at each time point by the peak area ratio at 0 min multiplied by 100.

[2] = Incubation with heat-inactivated human liver microsomes (stability control); conditions: 60 min
Procedure: as §1, §2, §3, §4

| SMILES | Mean % Remaining vs T = 0 min, Human Liver Microsomes ([1]; 1 μM, 15 min) [%] | Mean % Remaining vs T = 0 min, Human Liver Microsomes ([1]; 1 μM, 30 min) [%] | Mean % Remaining vs T = 0 min, Human Liver Microsomes ([1]; 1 μM, 60 min) | Mean % Remaining vs T = 0 min, Human Liver Microsomes ([1]; 10 μM, 15 min) [%] | Mean % Remaining vs T = 0 min, Human Liver Microsomes ([1]; 10 μM, 30 min) [%] | Mean % Remaining vs T = 0 min, Human Liver Microsomes ([1]; 10 μM, 60 min) [%] | Mean % Remaining vs T = 0 min, with HI (Heat Inactivated) Microsomes ([2]; 1 μM) [%] | Mean % Remaining vs T = 0 min, with HI (Heat Inactivated) Microsomes ([2]; 10 μM) [%] | % remaining ([1]; 15 min) | Mean % Remaining vs T = 0 min, Human Liver Microsomes ([1]; 10 μM, 15 min, positive control, data from three experiments) [%] | Mean % Remaining vs T = 0 min, Human Liver Microsomes ([1]; 10 μM, 30 min, positive control, data from three experiments) [%] | Mean % Remaining vs T = 0 min, Human Liver Microsomes ([1]; 10 μM, 60 min, positive control, data from three experiments) [%] | metabolism observed (in words) ([1]; active human liver microsomes, up to 60 min) | Mean % Remaining vs T = 0 min, with HI (Heat Inactivated) Microsomes ([2]; 10 μM, positive control, data from three experiments) [%] |
| --- | --- | --- | --- | --- | --- | --- | --- | --- | --- | --- | --- | --- | --- | --- |
| C#Cc1ccc2c(c1)C(c1ccccn1)=NCc1c(C(=O)OCC)ncn1-2 [HZ-166] | 106 | 98.4 | 80.4% | 104 | 90.7 | 76.3 | 94.1 | 95.4 |  |  |  |  |  |  |
| C#Cc1ccc2c(c1)C(c1ccccc1F)=NCc1c(C(=O)OCC)ncn1-2 [JY-XHe-053] | 13.5 | 2.13 | 0.27% | 20.0 | 3.60 | 0.56 | 102 | 111 | less than 20% |  |  |  |  |  |
| Cc1ncc2n1-c1ccc(Cl)cc1C(c1ccccc1F)=NC2 [Midazolam] |  |  |  |  |  |  |  |  |  | 36.9 ± 13.5 | 18.7 ± 7.3 | 4.2 ± 2.2 | consistently metabolized | 104 ± 1.2 |
| C#Cc1ccc2c(c1)C(c1ccccc1F)=N[C@H](C)c1c(C(=O)OCC)ncn1-2 [SH-053-2′F-RCH3] | 86.7 | 86.7 | 86.9% | 97.9 | 105 | 105 | 115 | 117 |  |  |  |  |  |  |
| C#Cc1ccc2c(c1)C(c1ccccc1F)=N[C@@H](C)c1c(C(=O)OCC)ncn1-2 [SH-053-2′F-SCH3] | 6.18 | 0.85 | 3.85^d % | 11.7 | 1.72 | 0.20 | 110 | 114 | less than 12% |  |  |  |  |  |
| C#Cc1ccc2c(c1)C(c1ccccc1)=NCc1c(C(=O)O)ncn1-2 [XHe-II-053 Acid] | 108 | 106 | 111% | 95.6 | 95.0 | 95.0 | 106 | 97.4 |  |  |  |  |  |  |
| C#Cc1ccc2c(c1)C(c1ccccc1)=NCc1c(C(=O)OCC)ncn1-2 [XHe-II-053] | 41.4 | 11.1 | 1.46% | 47.6 | 13.9 | 1.74 | 107 | 102 |  |  |  |  |  |  |
| C#Cc1ccc2c(c1)C(c1ccccn1)=NCc1c(-c3nc(C(C)C)no3)ncn1-2 [ZJW-II-040, 5-(8-Ethynyl-6-(pyridin-2-yl)-4H-Benzo-[f]-Imidazo-[1,5-a]-[1,4]-Diazepine-3-yl)-3-Isopropyl-1,2,4-Oxadiazole] | 97.8 | 98.7 | 89.4% | 106 | 99.3 | 95.1 | 113 | 92.0 |  |  |  |  |  |  |
